Results on ten compounds are retold here after EP0286252A2, “Anti-cancer composition & method featuring cyanine dyes” (DANA FARBER CANCER INSTITUTE, priority 1987, dated 1988).

Data set [1] has as its system CX-1 (human colon carcinoma). In words: clonogenic in vitro study, inhibition of cell colony formation. The format is cell-based. The settings on record: concentration of dye that inhibits 50% of cell colony formation, regular lighting conditions of laboratories; for IC50: Homo sapiens. The source says: As noted above, one of the advantages of the invention is that the cyanines described herein selectively attack the cancer cells as opposed to normal cells. Although knowledge of the mechanism is not essential to the practice of the invention, it is believed this occurs through the preferential inhibition of oxygen consumption in the mitochondria of the cancer cells. Such selectivity is further shown in clonogenic in vitro studies carried out in conventional fashion. That is, cell cultures of CX-1 (human colon carcinoma) and CV-1 (normal monkey epithelial cells) are prepared and treated at various concentrations, in the conventional manner, and the concentration of the dye that inhibits 50% of the cell colony formation is denoted as IC₅₀. This IC₅₀ value is compared for both the CX-1 and CV-1 lines; that is, the value for CV-1 is divided by the value for CX-1. If the value is 10 µg/ml for CV-1, and 1 µg/ml for CX-1, then the dye is 10 times as effective in killing off the colon carcinoma cells, compared to the monkey epithelial cells. This is expressed as a selectivity "S" of 10.
The selectivity values, and the CX-1 values for four of the cyanines of this invention obtained and tested under regular lighting conditions of laboratories, are listed below in Table I, along with a fifth cyanine used for comparative purposes.

Data set [2] concerns human melanoma cell line, LOX. In words: LOX melanoma survival test, nude mice protocol. It is filed as in vivo, athymic Swiss nu/nu mice. To be noted: for T/C: survival of treated vs untreated control group, 5 million LOX cells IP, IP treatment from day 1, lower dosage schedule for Dye 5. The source says:
(§1) Figs. 1-8 are a plot of survival rates of a cancer in an animal model, either treated as per the invention or untreated. In these plots, "% survival" means the % of the total group (treated "T" or control "C") still surviving on the day in question. The 50% data point is selected for the T/C calculation, as being the point that is statistically meaningful.
(§2) In the examples that follow, "nude mice protocol" refers to conventional xenografted human carcinoma or melanoma cells implanted into athymic mice. […] This has been reported in, e.g., the Journal of the National Cancer Institute, Vol. 74, No. 4, p. 899-903, especially p. […] (April 1985).
A human melanoma cell line, LOX, was utilized that grows rapidly when innoculated into the peritoneal cavity of athymic mice. Tumors which had been passaged subcutaneously in athymic mice were excised under sterile conditions and converted to a single cell suspension using a metal grid with a 4 mm mesh. Red blood cells were then lysed by incubation with 0.17 molar ammonium chloride at 4°C for 20 minutes. Cells were then scored for viability with trypan blue and 5 million viable cells made up in 0.1 ml of Dulbecco modified Eagles' medium (DME) were injected intraperitoneally into a group of athymic Swiss nu/nu mice (day 0). The mice were then randomly allocated into treatment and control groups. Treatment, by intraperitoneal injection, commenced the following day (day 1). Mice received dye No. 1 or Dye No. 2 at 1 mg/kg daily for five days followed by 1.5 mg/kg on day 8, 10, 12, 14 and 16, and twice a week at 2 mg/kg thereafter. There were 10 mice in each of the treatment groups and control group. The control group received 5% dextrose solution equal in volume to that of the Dye No. 1 treated group.
In the same experiment, the comparative example 1 was administered to 10 mice using the following schedule: 0.2 mg/kg daily for five days followed by 0.5 mg/kg on day 8, 10, 12, 14 and 16, and twice a week at 1 mg/kg thereafter.
T/C is the ratio, expressed as a percentage, of mean survival age of the treated group, to the mean survival age of the untreated control group.

The next data set deals with MB49 tumor cells. The data set can be described thus: mouse bladder carcinoma survival test, dyes given intraperitoneally. The format is in vivo, normal male BDF1 mice. The procedure: as §1
MB49 tumor cells, that is, mouse carcinoma cells induced by the carcinogen 7,12-dimethylbenz[a]anthracene, were injected intraperitoneally into normal male BDF1 mice (2 X 10⁶/mouse on day 0). Cyanine Dye No. 1 or No. 2, was administered intraperitioneally in the following manner: 0.2 mg/kg on day 1, 0.4 mg/kg on day 2, 0.8 mg/kg on day 3, 1.2 mg/kg on day 4, 1.5 mg/kg on days 8, 12, 16, 20, 24. (No further injection was used thereafter). […] (No further injection was used thereafter.) The control group of 10 mice was treated with equal volume of 5% dextrose as those treated with dye no. 1. The survival rate was calculated as in the previous examples.

Data set [3] concerns CX-1 (human colon carcinoma) and CV-1 (normal monkey epithelial cells). The data set can be described thus: clonogenic in vitro selectivity, IC50 for CV-1 divided by IC50 for CX-1. The format is cell-based. To be noted: selectivity: IC50 value for CV-1 divided by value for CX-1. The procedure: That is, cell cultures of CX-1 (human colon carcinoma) and CV-1 (normal monkey epithelial cells) are prepared and treated at various concentrations, in the conventional manner, and the concentration of the dye that inhibits 50% of the cell colony formation is denoted as IC₅₀. This IC₅₀ value is compared for both the CX-1 and CV-1 lines; that is, the value for CV-1 is divided by the value for CX-1. […] This is expressed as a selectivity "S" of 10.
Their generic structure is as follows: [drawing 7]

The test system of data set [4] is OVCAR -3, a human ovarian carcinoma cell line. The data set can be described thus: ovarian carcinoma survival test, nude mice protocol. It is filed as in vivo, athymic Swiss nu/nu mice. To be noted: survival of treated vs control; ten million OVCAR-3 cells IP; IP treatment; lower dosage schedule for Dye 5.
Description: as §1, §2
Dye Nos. 1 and 2 were repeated, except the cancer that was treated was OVCAR -3, a human ovarian carcinoma cell line of which ten million cells were injected IP into athymic Swiss nu/nu mice. For Ex. 5, 10 mice received dye 1 by IP injection commenced the day after the cancer injection, and repeated daily at 1.5 mg/kg for four days followed by 2 mg/kg on day 7, 10, 13, 16, 19 and 21, and twice a week at 2 mg/kg thereafter. Ten mice having such injected cancer were selected as a control group and received an equal volume of 5% dextrose as that of the treated group.
For Ex. 6, 10 mice received dye no. […]

The next data set has as its system stomach cancer. To be noted: treating stomach cancer in Japan; Antibiotics Chemother., Vol. 24 (1978); cited from earlier work.

The T/C is the result in the treated group divided by that in the control group, in per cent. In the case of `CCCN1C(=CC=Cc2sc3ccccc3[n+]2CCC)Sc2ccccc21` [Dye No. 5, 3-propyl-2-[3-(3-propyl-4-benzothia-zolin-2-ylidene)-1-propen-1-yl]benzothiazolium iodide], the “CX-1 Value” in data set [1] (listed as 3) is “.004 µg/mL”. For the same compound, the “toxicity at the dosage of Dye No. 1” value in data set [2] (LOX-bearing athymic mice, IP, dosage schedule of Dye No. 1 (1 mg/kg daily for five days, then 1.5 and 2 mg/kg)) was “killed the mice before the 50% survival point of the control could be reached”. This compound also registered a T/C in data set [2] (listed as 3) of 168%. Further, the “outcome of treatment (verdict in words)” value with MB49 tumor cells (MB49 mouse bladder carcinoma, IP) is recorded as “failure”.
Broadly, the IC50 is the concentration that inhibits the measured activity by half. `CCN1C(=CC=c2sc(=Cc3sc4c([n+]3CC)CCCC4)n(CC)c2=O)Oc2ccccc21` [compound 4] yielded an IC50 in data set [1] of 50 ng/mL. Besides, the S in data set [3] amounted to 100. In addition, the T/C in data set [2] stood at 166%.
With `CCCN1C(=CC=Cc2sc3ccccc3[n+]2CCC)Sc2ccccc21` [compound 5], the “CX-1 Value” in data set [1] was “.009 µg/mL”. Besides, in data set [3], the S is recorded as 22. In addition, the T/C worked out at 128% in data set [2]; 138% in data set [4]; 113% in the data set on MB49 tumor cells (survival of treated vs control, 2 X 10^6 MB49 cells/mouse IP, IP treatment, lower dosage schedule for dye No. 5).
In turn, `CCC(=Cc1oc2ccccc2[n+]1CC)C=C1Sc2ccccc2N1CC` [compound 7] came in with a S in data set [3] of 33.3.
In data set [1], `CCN1C(=CC=Cc2sc3ccccc3[n+]2CC)Sc2ccccc21` [compound 2] displayed an IC50 of 5 ng/mL.
In turn, `CCN1C(=CC=Cc2sc3ccccc3[n+]2CC)Sc2ccccc21` [Dye No. 2, 3-ethyl-2-[3-(3-ethyl-4-benzothia-zolin-2-ylidene)-1-propen-1-yl]-benzothiazolium iodide] had a T/C in data set [2] of 176%.
In data set [1], `CN1C(=CC=Cc2sc3ccccc3[n+]2C)Sc2ccccc21` [compound 1] returned an IC50 of 5 ng/mL.
Regarding `CCN1C(=CC(=Cc2sc3ccccc3[n+]2C)SC)Sc2ccccc21` [compound 6], in data set [3], the S is reported as 37.5.
Compound `CN1C(=CC=Cc2sc3ccccc3[n+]2C)Sc2ccccc21` [Dye No. 1, 3-methyl-2-[3-(3-methyl-4-benzo-thiazolin-2-ylidene)-1-propen-1-yl]-benzo-thiazolium chloride] registered a T/C in data set [2] of 205%.
Turning to `COc1cccc2c1C(=O)c1c(O)c3c(c(O)c1C2=O)C[C@@](O)(C(=O)CO)C[C@@H]3O[C@H]1C[C@H](N)[C@H](O)[C@H](C)O1` [Adriamycin], the effective response rate with stomach cancer was 14.5%.
